Read-outs that look alike come from different tables or passages of the source.

One series addresses KOR (Homo sapiens (Human), UniProt P41145). As to the kind of experiment: Competition binding assay at KOR ([3H]DPN, CHO cell membranes). The method, then: (§1) Chinese hamster ovary (CHO) cells expressing MOR, KOR and DOR were cultured for use in this assay. The culture media used for MOR CHO cells contained 500 mL DMEM/F12 media, 10% FBS, 1% penicillin/streptomycin, and 2.75 mL G418. The DOR and KOR CHO cells were cultured in the same media except that 5% FBS was used instead of 10%. The cells are allowed to grow until they are 80-95% confluent after which they are split. The cells are continuously cultured and split until there were sufficient cells for the studies.
(§2) Once the cells reached confluence, cells were harvested, centrifuged at 1000×g for 10 minutes, and suspended in membrane buffer (50 mM Tris, 3 mM MgCl2, and 1 mM EGTA, pH 7.4). The cells were then homogenized, centrifuged at 50000×g for 10 minutes, and re-homogenized in membrane buffer. A Bradford assay was conducted to determine membrane protein concentrations, and membrane protein preps (3 μg/aliquot) were stored at −80° C.
(§3) The competition binding assay was conducted to determine the affinity and selectivity of the synthesized compounds to MOR over KOR and DOR. The Kd and Bmax values for [^3H]NLX at MOR and [^3H]DPN at KOR had been determined previously. […] [^3H]NLX was used to label MOR whilst [^3H]DPN was used to label both DOR and KOR. The potency of the new compounds in displacing the specific binding of the radioligand was determined by linear regression analysis of Hill plots. […] The IC50 values were determined and converted to Ki values using the Cheng—Prusoff equation (Rosenblum, A. et al. Exp Clin Psychopharmacol. 2008, 16 (5), 405-416).

Series [1] deals with T1, DOR (Homo sapiens (Human), UniProt P41143). As to the kind of experiment: Competition binding assay at DOR ([3H]DPN, CHO cell membranes). The method, then: as §1, §2, §3
T1 sequence (P41143 whole entry, looked up): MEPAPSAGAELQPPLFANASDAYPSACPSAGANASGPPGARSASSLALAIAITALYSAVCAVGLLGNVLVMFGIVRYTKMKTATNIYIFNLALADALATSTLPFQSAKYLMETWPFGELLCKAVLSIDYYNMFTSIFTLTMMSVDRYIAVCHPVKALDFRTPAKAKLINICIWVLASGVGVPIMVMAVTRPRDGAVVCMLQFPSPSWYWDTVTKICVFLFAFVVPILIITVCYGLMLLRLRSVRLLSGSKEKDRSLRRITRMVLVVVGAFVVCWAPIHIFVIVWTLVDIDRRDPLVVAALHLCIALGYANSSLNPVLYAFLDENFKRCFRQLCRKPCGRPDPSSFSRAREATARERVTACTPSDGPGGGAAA
Series [2] has as its target MOR (Mus musculus, UniProt P42866). The series is classed as biochemical. To be noted: relative to 3 μM DAMGO at MOR. How it is done:
The [^35S]GTPγS functional assay was used to determine whether the synthesized compounds are agonists. The agonist's activity of the compounds was measured relative to 3 μM DAMGO at MOR. In this assay, upon receptor activation due to agonist binding, [^35S]GTPγS binds to the Gα subunit. Thus, [^35S]GTPγS replaces endogenous GTP and since the γ-thiophosphate bond is resistant to hydrolysis by GTPase, [^35S]GTPγS labelled Gα subunits accumulate and can be quantified by measuring the amount of incorporated [^35S].
The Bradford assay was then conducted to determine the concentration of the membrane protein using BSA as the standard. Suitable dilutions of membrane protein, [^35S]GTPγS), cold GTPγS, DAMGO and GDP were made in TME. The desired amount of the protein per tube was 10 μg. All the test-tubes were vortexed and incubated in the shaking water bath at 30° C. for 90 minutes, after which bound radioligand was filtered and rinsed three times with cold Tris buffer. The filtered bound radioligand was then transferred into scintillation tubes with 4 mL of scintillation fluid and radioligand was quantified. However, counting was delayed for 9 hrs to allow the radioactivity to enter the solution. Percent DAMGO stimulation was defined as (net stimulated binding of test compound/net stimulated binding of DAMGO)×100%. The normalized data were subjected to nonlinear regression analysis to determine EC50 and Emax values using Prism 6.0 software (GraphPad Software, San Diego, Calif.). The assay was performed in triplicate and repeated at least three times.

Series [3] relates to Swiss Webster mice. As to the kind of experiment: Warm-water tail immersion assay, blockage of the antinociceptive effect of morphine. To be noted: for Blockage of morphine-mediated antinociception: 10 mg/kg s.c. 5 min before morphine 10 mg/kg, tested 20 min after morphine; for AD50 (95% CL), opioid antagonist effect: dose-dependent study against morphine, s.c. The method, then: (§4) FIG. 1A-D. Warm-water tail immersion assay in mice (n=5) at 56±0.1° C. All tested compounds were administered subcutaneously (s.c.). […] Compounds (10 mg/kg) were injected at Time 0. Twenty minutes after injection, tail flick was assessed with hot water. […] Tested compounds (10 mg/kg) were injected at Time 0. Five minutes later, morphine (10 mg/kg) was administered. Twenty minutes after morphine injection, tail flick was tested using hot water.
(§5) For the in vivo studies, male Swiss Webster mice were used for both the warm-water immersion and opioid withdrawal assays. The mice weighed 23-35 g and were housed five to a cage in animal care quarters maintained at 22° C. on a 12 hour light-dark cycle with food and water available ad libitum. The mice were transferred to the test room and the tests were then conducted 18 hours later. Protocols and procedures were approved by the Institutional Animal Care and Use Committee at Virginia Commonwealth University Medical Center and complied with the recommendations of the International Association for the Study of Pain.
(§6) Each indole analogue of naltrexamine was tested for its ability to produce antinociception and/or to antagonize the antinociceptive effects of morphine in mice using the warm-water tail immersion assay described by Coderre and Rollman. The a water bath temperature was maintained at 56±0.1° C. The baseline latency (control) was determined before injecting the compounds into the mice. […] To test for agonism, the tail immersion was conducted 20 min (time that morphine effect starts to peak) after injecting the indole analogues of 6α/β-naltrexamine. To prevent tissue damage, a 10 s maximum cut off time was imposed. Antinociceptive response was calculated as the percentage maximum possible effect (% MPE), where % MPE=[(test−control)/(10−control)]×100. In the antagonism study, the 6α/β-naltrexamine derivatives were given 5 min before morphine. The tail immersion test was conducted 20 min after giving morphine. % MPE was calculated for each mouse using at least five mice per drug. AD50 values were calculated using the least-squares linear regression analysis followed by calculation of 95% confidence interval by Bliss method. A higher % MPE indicates a stronger antinociception effect by the ligand.

The next series deals with morphine-pelleted mice. Briefly: Opioid withdrawal assay in chronic morphine-exposed (pelleted) mice. The method, then: as §5
A 75 mg morphine pellet was implanted in to the base of the neck of the mice and the mice were then given time to recover in their home cages before the test was conducted. The mice were then allowed for 30 min habituation to an open-topped, square, clear Plexiglas observation chamber (26×26×26 cm^3) with lines partitioning the bottom into quadrants before they were given antagonist. All drugs and test compounds were administered subcutaneously (s.c.). […] Withdrawal commenced within 3 min after antagonist administration. Escape jumps, paw tremors and wet dog shakes were quantified by counting their occurrences over 20 min for each mouse using five mice per drug. The data is given as the mean±SEM. One-way ANOVA followed by the post hoc Dunnett test were performed to assess significance using the Prism 6.0 software.

Series [4] relates to Swiss Webster mice. As to the kind of experiment: Warm-water tail immersion assay, antinociceptive (agonist) effect. It is filed as in vivo. To be noted: 10 mg/kg s.c., tail flick 20 min after injection, 56 °C. How it is done: as §4, §5
as §6, with “In the antagonism study, the 6α/β-naltrexamine derivatives were given 5 min before morphine.” left out, “A higher % MPE indicates a stronger antinociception effect by the ligand.” left out

Series [5] has as its target MOR (Homo sapiens (Human), UniProt P35372). To be noted: background statement; cited from earlier work.
The target in series [6] is T1, DOR. To be noted: read-out: Ki (nM) ± SEM δ; values obtained from previous experiments; cited from earlier work.
[7] abbreviates: [3H]DPN, KOR CHO membranes, read-out: Ki (nM) ± SEM κ.
Setting [8] is: [3H]DPN, DOR CHO membranes, read-out: Ki (nM) ± SEM δ.
Where [9] appears, read: 50 mg/kg s.c., morphine-pelleted mice.

Chain of MOR (Mus musculus, UniProt P42866) (P42866 whole entry, looked up): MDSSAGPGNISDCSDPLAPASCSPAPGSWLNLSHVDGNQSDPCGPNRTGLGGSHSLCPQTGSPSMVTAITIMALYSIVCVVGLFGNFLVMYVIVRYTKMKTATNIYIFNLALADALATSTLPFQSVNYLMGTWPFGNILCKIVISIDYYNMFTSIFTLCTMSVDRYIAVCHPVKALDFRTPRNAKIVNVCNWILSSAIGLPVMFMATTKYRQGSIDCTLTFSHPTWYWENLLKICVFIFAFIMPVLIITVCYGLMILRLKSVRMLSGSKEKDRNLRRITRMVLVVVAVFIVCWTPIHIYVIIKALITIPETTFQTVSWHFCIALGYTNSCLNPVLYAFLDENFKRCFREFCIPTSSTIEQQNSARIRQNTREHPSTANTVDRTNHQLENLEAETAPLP
Chain of MOR (Homo sapiens (Human), UniProt P35372) (P35372 whole entry): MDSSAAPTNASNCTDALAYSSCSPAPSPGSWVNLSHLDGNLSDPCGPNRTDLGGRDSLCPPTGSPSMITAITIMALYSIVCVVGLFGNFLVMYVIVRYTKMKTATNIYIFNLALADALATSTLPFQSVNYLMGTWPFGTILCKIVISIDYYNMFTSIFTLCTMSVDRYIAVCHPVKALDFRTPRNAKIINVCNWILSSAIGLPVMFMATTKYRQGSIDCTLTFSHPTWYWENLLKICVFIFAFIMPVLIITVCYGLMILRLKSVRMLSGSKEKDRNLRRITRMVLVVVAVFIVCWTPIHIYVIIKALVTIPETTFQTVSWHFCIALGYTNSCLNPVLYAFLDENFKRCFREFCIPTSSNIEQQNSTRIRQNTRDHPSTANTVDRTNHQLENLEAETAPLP

As to `Cl.O=C(N[C@H]1CC[C@@]2(O)[C@H]3Cc4ccc(O)c5c4[C@@]2(CCN3CC2CC2)[C@H]1O5)c1cccc2cc[nH]c12` [Compound 6, 17-Cyclopropylmethyl-3,14β-dihydroxy-4,5α-epoxy-6α-(indole-7-carboxamido)morphinan], the inhibition constant (Ki) – broadly, a measure of affinity in units of concentration, obtained from inhibition or displacement – on KOR (setting [7]) was 1.69 ± 0.35 nM. In addition, the inhibition constant Ki at DOR [1] (setting [8]) was found to be 10.9 ± 2.94 nM. Further, the “Emax(% DAMGO) ± SEM” value on MOR [2] turned out to be 20.95 ± 4.43 % DAMGO. Further, in the series on Swiss Webster mice [3], the “Blockage of morphine-mediated antinociception” value (“Blockage” below) is reported as “effectively blocked morphine-mediated antinociception” and the “AD50 (95% CL), opioid antagonist effect” value is on record as 2.39 (0.46-12.47) mg/kg. The “Escape jumps compared with naltrexone 1 mg/kg” value in the series on morphine-pelleted mice (1 mg/kg s.c., morphine-pelleted mice) is given as “significantly less escape jumps than naltrexone”. For the same compound, in the series on morphine-pelleted mice (1 mg/kg, morphine pelleted mice (not in placebo pelleted mice)), the Diarrhea result is listed as “produced diarrhea”. In the series on morphine-pelleted mice (setting [9]), the “Paw tremors compared with naltrexone 1 mg/kg” value is recorded as “significantly less paw tremors than naltrexone” and the “Wet-dog shakes compared with naltrexone 1 mg/kg” value is reported as “significantly less wet-dog shakes than naltrexone”. Further, in the series with morphine-pelleted mice (50 mg/kg s.c., morphine-pelleted mice, not significantly different), the “Escape jumps compared with naltrexone 1 mg/kg” value was “more escape jumps”. The “Withdrawal symptoms in placebo-pelleted mice” value with morphine-pelleted mice (50 mg/kg s.c., placebo-pelleted mice) is “did not induce any significant withdrawal symptoms”.

As for `Cl.O=C(N[C@@H]1CC[C@@]2(O)[C@H]3Cc4ccc(O)c5c4[C@@]2(CCN3CC2CC2)[C@H]1O5)c1cc2ccccc2[nH]1` [Compound 10, 17-Cyclopropylmethyl-3,14β-dihydroxy-4,5α-epoxy-6β-(indole-2-carboxamido)morphinan], the Ki is 0.178 ± 0.002 nM on KOR and 1.54 ± 0.473 nM at DOR [1]. In addition, the “Antinociceptive effect (agonism) in warm-water immersion assay” value (from here on “Antinociceptive effect (agonism)”) in the series on Swiss Webster mice [4] was “opioid agonist”.

For `Cl.O=C(N[C@@H]1CC[C@@]2(O)[C@H]3Cc4ccc(O)c5c4[C@@]2(CCN3CC2CC2)[C@H]1O5)c1cccc2cc[nH]c12` [Compound 15, 17-Cyclopropylmethyl-3,14β-dihydroxy-4,5α-epoxy-6β-(indole-7-carboxamido)morphinan], the Ki at KOR is 0.52 ± 0.094 nM; at DOR [1], 30.4 ± 9.49 nM. In addition, the “Emax(% DAMGO) ± SEM” value on MOR [2] came to 32.0 ± 4.6 % DAMGO. For the same compound, the “Antinociceptive effect (agonism)” value with Swiss Webster mice [4] was “partial opioid agonists”. Besides, in the series with Swiss Webster mice [3], the “Blockage” value was “effectively blocked morphine-mediated antinociception”.

On to `Cl.O=C(Cc1c[nH]c2ccccc12)N[C@@H]1CC[C@@]2(O)[C@H]3Cc4ccc(O)c5c4[C@@]2(CCN3CC2CC2)[C@H]1O5` [Compound 16, 17-Cyclopropylmethyl-3,14β-dihydroxy-4,5α-epoxy-6β-[2-(indol-3-yl)acetamido)morphinan], for which the figures for the Ki at KOR (setting [7]) and on DOR [1] (setting [8]) were 0.947 ± 0.114 nM and 37 ± 1.21 nM, respectively. Moreover, on MOR [2], the “Emax(% DAMGO) ± SEM” value was 50.17 ± 7.75 % DAMGO. In the series on Swiss Webster mice [4], the “Antinociceptive effect (agonism)” value is “partial opioid agonists”.

As to `Cl.O=C(CCCc1c[nH]c2ccccc12)N[C@@H]1CC[C@@]2(O)[C@H]3Cc4ccc(O)c5c4[C@@]2(CCN3CC2CC2)[C@H]1O5` [Compound 18, 17-Cyclopropylmethyl-3,14β-dihydroxy-4,5α-epoxy-6β-[4-(indol-3-yl)butanamido)morphinan], the Ki on KOR (setting [7]) was found to be 0.175 ± 0.037 nM. The Ki on DOR [1] (setting [8]) is 25.3 ± 4.34 nM. The “Emax(% DAMGO) ± SEM” value on MOR [2] is recorded as 36.29 ± 4.11 % DAMGO. Besides, in the series with Swiss Webster mice [3], the “Blockage” value is reported as “effectively blocked morphine-mediated antinociception” and the “AD50 (95% CL), opioid antagonist effect” value is on record as 9.64 (3.17-29.29) mg/kg.

Take `COc1cccc2c1[C@]13CCN(CC4CC4)[C@H](C2)[C@]1(OC)CCC(=O)C3` [Cyprodime]: on MOR [5], the “Selectivity DOR/MOR (MOR over DOR)” value is listed as “≈ 39 fold” and the “Selectivity KOR/MOR” value is on record as “≈ 10”.

Take `Cl.O=C(N[C@H]1CC[C@@]2(O)[C@H]3Cc4ccc(O)c5c4[C@@]2(CCN3CC2CC2)[C@H]1O5)c1cc2ccccc2cn1` [NAQ, 17-Cyclopropylmethyl-3,14β-Dihydroxy-4,5α-Epoxy-6α-(Isoquinoline-3-Carboxamido)morphinan]: the Ki at DOR [6] was 162 ± 15 nM.

These data come from patent US10988481B2, “Potent and selective mu opioid receptor modulators” (VIRGINIA COMMONWEALTH UNIVERSITY, priority 2016, dated 2021).
